Source: patent US20050137177A1, “Ester combination local anesthetic” (priority 2003, published 2005)

Legend:
sciatic nerve [1] = details: rat, in vivo
Excerpt: Sections were also taken across the sciatic nerve five days after injection with local anesthetic(s) and examined for gross pathological injury.

[2] = between 1990 and 1997; Medline database; cited from earlier work
rat peroneal nerve = details: in vivo; for peroneal total axonal counts (± SEM): 5 days
Excerpt: Sections of rat peroneal nerve were taken for evaluation with light microscopy five days post injection with local anesthetic(s). Specifically, each nerve was sectioned and total axonal counts were taken to assess any axonal loss. Five nerves were examined for each treatment condition. The peroneal axonal counts five days after control (saline), bupivacaine, and 2.3% 2-chloroprocaine/0.17% tetracaine injections were 2063±30 (SEM), 1959±81, and 1993±45, respectively.

sciatic nerve [3] = assay: Rat sciatic nerve block, onset and offset (withdrawal to pinch, proprioception, motor strength); assay type: in vivo; details: for duration of full sensory block (until it started to decay) / duration of sensory block (in words) / onset of sensory block (in words): 2% 2-chloroprocaine; for duration of sensory block (in words) / onset of sensory block (in words): 0.22% or 0.5% tetracaine
Method: The onset and offset of sciatic nerve block from lidocaine, bupivacaine, tetracaine, and 2-chloroprocaine were examined in studies conducted in rats. Three different modalities were tested: (1) pain (e.g., withdrawal to pinch); (2) proprioception (e.g., the ability to place the paw squarely on the table); and (3) motor strength (e.g., the downward pressure the paw can exert on a scale). In each case, the same volume of local anesthetic agent was tested. The modality of interest was withdrawal to pinch. Each local anesthetic was tested on 5 rats of nearly identical size and age.

[4] = withdrawal to pinch, 2.0% lidocaine, 0.5% bupivacaine, 0.17% tetracaine + 2.3% 2-chloroprocaine
[5] = 0.17% tetracaine + 2.3% 2-chloroprocaine
[6] = 2.0% lidocaine, 0.17% tetracaine + 2.3% 2-chloroprocaine

| SMILES | light microscopic appearance of sciatic nerve at site of injection (sciatic nerve [1]) | deaths (e.g., heart arrest, myocardial infarction, accidental overdose) [2] | total axonal counts compared with saline controls (in words) (rat peroneal nerve) | peroneal total axonal counts (± SEM) (rat peroneal nerve) | onset of sensory block relative to 2.0% lidocaine (sciatic nerve [3]; 0.5% bupivacaine vs 2.0% lidocaine) | time to achieve full sensory block (onset) (sciatic nerve [3]; withdrawal to pinch, 0.5% bupivacaine, 0.17% tetracaine + 2.3% 2-chloroprocaine, same volume, 5 rats) | duration of full sensory block (until it started to decay) (sciatic nerve [3]; [4]) | duration of sensory block (in words) (sciatic nerve [3]; [5]) | onset of sensory block (in words) (sciatic nerve [3]; [6]) | onset of block at the first time point tested (sciatic nerve [3]; 2.0% lidocaine, 2 minutes after injection, sensory block, 5 rats) | sensory block achieved (sciatic nerve [3]; 0.22% tetracaine) | sensory block achieved (sciatic nerve [3]; 0.5% tetracaine) | motor blockade (sciatic nerve [3]; tetracaine studies, all animals, data not shown) |
| --- | --- | --- | --- | --- | --- | --- | --- | --- | --- | --- | --- | --- | --- |
| CCCCN1CCCCC1C(=O)Nc1c(C)cccc1C (stereo not drawn) [bupivacaine] | indistinguishable from saline controls | 102 deaths | no significant difference | 1959±81 | 4 times slower | 8 min | 60 min | – | – | – | – | – | – |
| CCN(CC)CCOC(=O)c1ccc(N)cc1Cl [2-chloroprocaine] | – | – | – | – | – | – | about 30 minutes | substantially shorter without co-administration of tetracaine | slower than with co-administration of tetracaine | – | – | – | – |
| CCN(CC)CC(=O)Nc1c(C)cccc1C [lidocaine] | marked edema and neural damage | – | significantly reduced | 1602±167 | – | – | about 45 minutes | – | nearly immediate | 100% | – | – | – |
| CCCCNc1ccc(C(=O)OCCN(C)C)cc1 [tetracaine] | – | – | – | – | – | – | – | dissipated rapidly | slow onset | – | less than 60% | less than 60% | complete, prolonged motor blockade |
